Results published in patent publication US6469013B2, “Therapeutic compounds” (Parker Hughes Institute, priority 1998, dated 2002).
Where two headings read alike, the source gives them in different places.

Legend:
C57BL/6 splenocytes = assay: Splenocyte apoptosis (TUNEL, flow cytometry); assay type: cell-based, mouse; conditions: 20 h
Experimental: C57BL/6 splenocytes (3×10^6/ml) were cultured in 24-well plate for 20 h in 500 μl of RPMI-1640 under the conditions described above. […] Apoptotic cell death was detected by TUNEL, using InSitu Cell Detection Kit, Fluorescein (Boehringer Mannheim, Indianapolis, Ind.). After the culture period, cells were washed, fixed, permeabilised and stained following manufacturer's instructions and apoptosis was analyzed by flow cytometry, using FACS Calibur (Becton Dickinson, San Jose, Calif.).

[1] = system: NALM-6 human leukemia cells; assay: Mitochondrial membrane potential (DiIC1, JC-1 flow cytometry); assay type: cell-based; conditions: for EC50: Homo sapiens, NALM-6
Experimental: Mitochondrial membrane potential (Δψm) was measured using two dyes including a lipophillic cation 5,5′,6,6′-tetrachloro-1,1′,3,3′-tetraethlybenzimidazolylcarbocyanine iodide (JC-1) and a cyanine dye, 1,1′,3,3,3′,3′-hexamethylindodicarbocyanine iodide (DiIC1 (27-29)) obtained from Molecular Probes (Eugene, Oreg.). JC-1 is a monomer at 527 nm after being excited at 490 nm; with polarization of Δψm, J-aggregates are formed that shift emission to 590 nm (30). This can be detected on a flow cytometer by assessing the green signal (at 527 nm) and green-orange signal (at 590 nm) simultaneously, creating an index of the number of cells polarized and depolarized mitochondria. DiIC1, a cyanine dye which is amphioatheic and cationic, concentrates in energized mitochondria and has been used in a variety of studies to measure the mitochondrial membrane potential (Fujii, H., et al., Histochem J. 29: 571-581, 1997; Mancini, M., et al., J. Cell Biol. 138: 449-469, 1997; and Petit, P. X., et al., J. Cell Biol. 130: 157-167, 1995). Cells were also stained with DiIC1 at 40 nM concentration for 30 min in the dark as described for JC-1. The cells were analyzed using a Vantage Becton Dickinson (San Jose, Calif.) cell sorter equipped with HeNe laser with excitation at 635 nm and the fluorescence was collected at 666 nm.
To test the cytotoxicity of compound 6 against JAK-3 expressing human leukemia cells, leukemic cells were exposed to this JAK3 inhibitor and monitored for apoptosis-associated changes in mitochondrial membrane potential (Δψm) and mitochondrial mass using specific fluorescent mitochondrial probes and multiparameter flow cytometry. To measure changes in Δψm, DiIC1 (which accumulates in energized mitochondria) was used, whereas the mitochondrial mass was determined by staining the cells with NAO, a fluorescent dye that binds to the mitochondrial inner membrane independent of energetic state. Treatment of NALM-6 leukemia cells with compound 6 at 7.4 μg/ml (25 μM) to 60 μg/ml (200 μM) for 24 h or 48 h increased the number of depolarized mitochondria in a concentration- and time-dependent manner as determined by flow cytometry using DiIC1 (27-29) (FIG. 7A). […] To further confirm this relative change in Δψm, we used JC-1, a mitochondrial dye, which normally exists in solution as a monomer emitting green fluorescence and assumes a dimeric configuration emitting red fluorescence in a reaction driven by mitochondrial transmembrane potential (Smiley, S. T., et al., Proc. Natl. Acad. Sci. U.S. A. 88: 3671-3675, 1991). Thus, the use of JC-1 allows simultaneous analysis of mitochondrial mass (green fluorescence) and mitochondrial transmembrane potential (red/orange fluorescence). After treatment of NALM-6 cells with compound 6 at increasing concentrations ranging from 25 μM to 200 μM and with increasing duration of exposure of 24 h or 48 h, we observed a progressive dissociation between Δψm and mitochondrial mass, with decrement in JC-1 red/orange fluorescence without a significant corresponding drop in JC-1 green fluorescence (FIG. 7C&D).

skh-1 mice = assay: Acute UVB skin inflammation: skinfold thickness, morphology, histology; assay type: in vivo, mouse; conditions: 48 h post UVB; UVB vehicle 3-5, normal 2-3
Excerpt: A bank of 8-FSX24T12/HO/UVB lamps (National Biological Corporation, Twinsburg, Ohio) that emits light predominantly in the UVB range, 280-320 nm was used to irradiate mice and cell cultures. The irradiance of UVB lamps was always measured before irradiation using a UVB meter (model—500C obtained from National Biological Corporation, Twinsburg, Ohio). The dose of UVB light used to irradiate cultures was 25 mj/cm^2. Anesthetized mice received UVB radiations to a 2.0 cm^2 area on their dorsal surface. This area was painted either with the test compound (1.5 mg/cm^2) in drug receiving mice, or with vehicle in control mice fifteen minutes before irradiation. The distance between UVB lamps and surface receiving irradiation was 20 cm. The final radiation dose received by skh-1 hairless mice was 250 mj/cm^2 which is approximately seven times higher than the minimal erythema dose (MED) (17) in these mice. […]
Morphological appearance of the UVB irradiated skin was monitored visually and compared with the control mice skin. Skinfold thickness of the dorsal surface of the mice was recorded before, and everyday after UVB exposure for five days with a digital thickness gauge (Mitutoyo, So. Plainfield, N.J.) which measures thickness in 0-10 mm range with an accuracy of 0.015 mm. […]

COc1cc2ncnc(Nc3ccc(O)cc3)c2cc1OC [WHI-P131, 4-(4′-hydroxyl-phenyl)-amino-6,7-dimethoxyquinazoline]
apoptotic cell death of splenocytes (TUNEL-positive) (C57BL/6 splenocytes; 0.1 and 1 μg/ml): does not differ from control cells | apoptotic cell death of splenocytes (TUNEL-positive) (C57BL/6 splenocytes; 10 and 100 μg/ml): significantly increased | JC-1 green fluorescence (mitochondrial mass) ([1]; 200 μM × 48 hours): 99.8% | fraction of DiIC1-negative cells with depolarized mitochondria ([1]; 200 μM, 48 hours): 81.6% | fraction of JC-1 red/orange fluorescence-negative cells ([1]; 200 μM, 48 hours): 16.9% | EC50 ([1]; 24 hour treatment, read-out: EC50, depolarization of mitochondria (decreased DiIC1 staining)): 79.3 µM | EC50 ([1]; 24 hour treatment, read-out: EC50, depolarization of mitochondria (decreased JC-1 red/orange fluorescence)): 94.2 µM | EC50 ([1]; 48 hour treatment, read-out: EC50, depolarization of mitochondria (decreased DiIC1 staining)): 58.4 µM | EC50 ([1]; 48 hour treatment, read-out: EC50, depolarization of mitochondria (decreased JC-1 red/orange fluorescence)): 50.4 µM | cell layers of epidermis (skh-1 mice): 1-2 cell layers
